Test results published in ChEMBL document CHEMBL5365534, “Discovery of a Novel Ketohexokinase Inhibitor with Improved Drug Distribution in Target Tissue for the Treatment of Fructose Metabolic Disease” (J Med Chem, 2023).

How the values were obtained:
physchem = conditions: buffer, pH 7.4
[1] = Oral bioavailability in Sprague-Dawley rat at 10 mg/kg administered as single dose measured upto 24 hrs by LC-MS/MS analysis; type: ADME, organism-based; conditions: in vivo
Cytochrome P450 3A4 = Cytochrome P450 3A4 (Homo sapiens, UniProt P08684)
Chain of Cytochrome P450 3A4 (P08684 whole entry): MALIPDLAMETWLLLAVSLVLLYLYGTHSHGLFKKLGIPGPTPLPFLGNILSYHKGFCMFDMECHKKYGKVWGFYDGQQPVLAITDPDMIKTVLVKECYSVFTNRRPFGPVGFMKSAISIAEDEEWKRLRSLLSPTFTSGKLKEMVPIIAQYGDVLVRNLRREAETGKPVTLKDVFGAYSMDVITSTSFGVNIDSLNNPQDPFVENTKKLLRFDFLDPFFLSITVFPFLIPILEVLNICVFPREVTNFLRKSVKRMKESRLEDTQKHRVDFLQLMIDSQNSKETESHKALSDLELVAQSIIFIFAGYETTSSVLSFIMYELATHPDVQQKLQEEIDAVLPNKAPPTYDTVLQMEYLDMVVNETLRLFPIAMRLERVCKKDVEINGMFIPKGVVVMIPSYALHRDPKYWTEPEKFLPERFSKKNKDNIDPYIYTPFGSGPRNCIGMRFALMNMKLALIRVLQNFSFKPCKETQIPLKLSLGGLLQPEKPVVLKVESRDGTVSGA
Description: Inhibition of CYP3A4 in human liver microsomes at 0.1 to 30 uM measured for 5 mins in presence of NADPH by LC-MS/MS analysis

in vivo [2] = conditions: Sprague-Dawley, rat, spleen, po, 10 mg/kg
Description: Drug concentration in Sprague-Dawley rat spleen at 10 mg/kg, po administered as single dose measured upto 24 hrs by LC-MS/MS analysis

in vitro [3] = conditions: rat, hepatocytes
[4] = AUC (0 to infinity) in Sprague-Dawley rat at 10 mg/kg, po administered as single dose measured upto 24 hrs by LC-MS/MS analysis; type: ADME, organism-based; set-up: dose 10 mg/kg, time < 24 hrs, route po; conditions: in vivo
in vitro [5] = conditions: dog, hepatocytes
[6] = Drug metabolism in rat hepatocytes assessed as oxidation/hydrogenation/decarboxylation metabolite at 10 uM measured upto 240 mins by LC-MS/MS analysis; type: ADME, cell-based, Hepatocyte; conditions: 4 h
Cytochrome P450 2D6 = Cytochrome P450 2D6 (Homo sapiens, UniProt P10635); assay: Time dependent inhibition of CYP2D6 in human liver microsomes at 10 uM preincubated for 30 mins followed by substrate addition and measured after 15 mins in presence of NADPH by LC-MS/MS analysis; type: ADME, Microsome
Chain of Cytochrome P450 2D6 (P10635 whole entry): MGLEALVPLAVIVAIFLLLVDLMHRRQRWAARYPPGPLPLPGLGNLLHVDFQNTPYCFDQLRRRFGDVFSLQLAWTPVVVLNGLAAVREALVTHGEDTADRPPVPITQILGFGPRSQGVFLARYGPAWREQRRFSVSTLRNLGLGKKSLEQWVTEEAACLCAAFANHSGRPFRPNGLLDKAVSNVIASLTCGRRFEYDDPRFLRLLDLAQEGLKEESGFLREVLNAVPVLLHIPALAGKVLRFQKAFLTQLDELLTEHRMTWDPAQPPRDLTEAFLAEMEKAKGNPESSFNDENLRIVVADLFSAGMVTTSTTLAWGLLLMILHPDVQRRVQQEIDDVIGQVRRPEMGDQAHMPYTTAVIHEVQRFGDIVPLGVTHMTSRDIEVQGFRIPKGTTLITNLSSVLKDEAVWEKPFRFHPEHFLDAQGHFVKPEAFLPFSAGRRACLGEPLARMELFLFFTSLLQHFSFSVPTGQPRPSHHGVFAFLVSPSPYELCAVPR

[7] = AUC (0 to t) in Beagle dog at 1 mg/kg, iv administered as single dose measured upto 24 hrs by LC-MS/MS analysis; type: ADME, organism-based, Canis lupus familiaris; set-up: dose 1 mg/kg, time < 24 hrs, route iv; conditions: in vivo
[8] = Tmax in Beagle dog at 5 mg/kg, po administered as single dose measured upto 24 hrs by LC-MS/MS analysis; type: ADME, organism-based, Canis lupus familiaris; conditions: in vivo
[9] = Drug metabolism in rat hepatocytes assessed as glycine conjugation metabolite at 10 uM measured upto 240 mins by LC-MS/MS analysis; type: ADME, cell-based, Hepatocyte; conditions: 4 h
[10] = MRT (0 to t) in Sprague-Dawley rat at 10 mg/kg, iv administered as single dose measured upto 24 hrs by LC-MS/MS analysis; type: ADME, organism-based; conditions: in vivo
Ketohexokinase = target: T1, Ketohexokinase (Homo sapiens, UniProt P50053)
T1 sequence (P50053 whole entry): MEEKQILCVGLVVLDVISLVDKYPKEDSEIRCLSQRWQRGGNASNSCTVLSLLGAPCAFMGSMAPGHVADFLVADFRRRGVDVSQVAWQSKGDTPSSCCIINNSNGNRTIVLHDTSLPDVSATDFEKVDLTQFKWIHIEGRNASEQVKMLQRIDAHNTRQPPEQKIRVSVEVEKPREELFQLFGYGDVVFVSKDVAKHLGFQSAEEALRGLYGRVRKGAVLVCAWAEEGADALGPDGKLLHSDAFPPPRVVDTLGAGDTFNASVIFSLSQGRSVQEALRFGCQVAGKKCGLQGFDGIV
Description: Inhibition of N-terminal his tagged human recombinant KHK-A expressed in Escherichia coli incubated for 60 mins in presence of ATP by ADP Glo assay

in vitro [11] = conditions: mouse, hepatocytes
[12] = AUC (0 to infinity) in Beagle dog at 5 mg/kg, po administered as single dose measured upto 24 hrs by LC-MS/MS analysis; type: ADME, organism-based, Canis lupus familiaris; set-up: time < 24 hrs, dose 5 mg/kg, route po; conditions: in vivo
Cytochrome P450 2C9 [13] = target: T2, Cytochrome P450 2C9 (Homo sapiens, UniProt P11712); assay: Time dependent inhibition of CYP2C9 in human liver microsomes at 10 uM preincubated for 30 mins followed by substrate addition and measured after 15 mins in presence of NADPH by LC-MS/MS analysis; type: ADME, Microsome
T2 sequence (P11712 whole entry): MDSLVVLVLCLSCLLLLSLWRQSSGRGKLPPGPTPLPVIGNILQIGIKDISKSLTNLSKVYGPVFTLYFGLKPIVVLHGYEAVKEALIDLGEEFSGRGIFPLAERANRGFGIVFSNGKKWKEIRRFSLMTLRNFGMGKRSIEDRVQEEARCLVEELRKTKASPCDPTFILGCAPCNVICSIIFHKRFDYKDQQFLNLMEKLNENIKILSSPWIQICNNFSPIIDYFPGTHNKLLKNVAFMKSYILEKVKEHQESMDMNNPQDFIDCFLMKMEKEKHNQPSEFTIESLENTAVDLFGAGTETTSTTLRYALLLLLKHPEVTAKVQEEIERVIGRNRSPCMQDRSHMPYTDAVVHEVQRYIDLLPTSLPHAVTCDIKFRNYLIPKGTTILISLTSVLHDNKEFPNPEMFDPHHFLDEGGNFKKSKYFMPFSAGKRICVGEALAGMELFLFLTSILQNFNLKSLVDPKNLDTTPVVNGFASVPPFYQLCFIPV

in vivo [14] = conditions: Sprague-Dawley, rat, lung, po, 10 mg/kg
Description: Drug concentration in Sprague-Dawley rat lung at 10 mg/kg, po administered as single dose measured upto 24 hrs by LC-MS/MS analysis

[15] = AUC (0 to infinity) in Beagle dog at 1 mg/kg, iv administered as single dose measured upto 24 hrs by LC-MS/MS analysis; type: ADME, organism-based, Canis lupus familiaris; set-up: time < 24 hrs, dose 1 mg/kg, route iv; conditions: in vivo
[16] = Metabolic stability in dog hepatocyte assessed as parent compound remaining at 10 uM measured after 4 hrs by LC-MS/MS analysis; type: ADME, cell-based, Canis lupus familiaris; conditions: hepatocytes, read-out: Stability
[17] = Drug metabolism in monkey hepatocytes assessed as oxidation/hydrogenation/decarboxylation metabolite at 10 uM measured upto 240 mins by LC-MS/MS analysis; type: ADME, cell-based, Macaca mulatta, Hepatocyte; conditions: rhesus monkey, 4 h
Cytochrome P450 2C9 [18] = target: T2, Cytochrome P450 2C9
Description: Inhibition of CYP2C9 in human liver microsomes at 0.1 to 30 uM measured for 5 mins in presence of NADPH by LC-MS/MS analysis

[19] = MRT (0 to t) in Beagle dog at 1 mg/kg, iv administered as single dose measured upto 24 hrs by LC-MS/MS analysis; type: ADME, organism-based, Canis lupus familiaris; conditions: in vivo
in vitro [20] = conditions: dog, liver microsomes
in vivo [21] = conditions: Sprague-Dawley, rat, liver/plasma, po, 10 mg/kg
Description: Ratio of drug concentration in Sprague-Dawley rat liver to plasma at 10 mg/kg, po administered as single dose measured upto 24 hrs by LC-MS/MS analysis

PXR = target: T3, PXR (Homo sapiens, UniProt O75469); assay: in vitro
T3 sequence (O75469 whole entry): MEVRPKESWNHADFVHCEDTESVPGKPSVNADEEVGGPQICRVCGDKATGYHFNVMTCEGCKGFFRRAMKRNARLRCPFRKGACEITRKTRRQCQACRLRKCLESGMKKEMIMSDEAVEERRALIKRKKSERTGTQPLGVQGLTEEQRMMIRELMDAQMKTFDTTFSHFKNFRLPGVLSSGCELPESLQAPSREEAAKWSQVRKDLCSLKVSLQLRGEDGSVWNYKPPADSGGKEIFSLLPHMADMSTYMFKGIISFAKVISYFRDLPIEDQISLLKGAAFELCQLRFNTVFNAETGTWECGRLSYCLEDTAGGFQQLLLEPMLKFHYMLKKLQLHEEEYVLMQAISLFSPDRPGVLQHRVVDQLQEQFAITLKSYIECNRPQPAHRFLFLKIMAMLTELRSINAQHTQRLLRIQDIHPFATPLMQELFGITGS
Description: Activation of PXR (unknown origin) at 30 uM relative to control

in vitro [22] = conditions: rat, liver microsomes
in vitro [23] = conditions: human, HepG2 cells
Description: Mitotoxicity in human HepG2 cells incubated for 2 hrs by Celltiter-Glo assay

[24] = AUC (0 to infinity) in Sprague-Dawley rat at 10 mg/kg, iv administered as single dose measured upto 24 hrs by LC-MS/MS analysis; type: ADME, organism-based; set-up: dose 10 mg/kg, time < 24 hrs, route iv; conditions: in vivo
in vitro [25] = conditions: human, hepatocytes
[26] = Elimination half life in Sprague-Dawley rat at 10 mg/kg, po administered as single dose measured upto 24 hrs by LC-MS/MS analysis; type: ADME, organism-based; conditions: in vivo, read-out: beta t1/2 (converted)
in vitro [27] = conditions: rhesus monkey, liver microsomes
in vitro [28] = conditions: human, primary hepatocytes
Description: Toxicity in human Primary hepatocyte incubated for 48 hrs by Celltiter-Glo assay

[29] = Clearance in Sprague-Dawley rat at 10 mg/kg, iv administered as single dose measured upto 24 hrs by LC-MS/MS analysis; type: ADME, organism-based; conditions: in vivo
[30] = Clearance in Beagle dog at 1 mg/kg, iv administered as single dose measured upto 24 hrs by LC-MS/MS analysis; type: ADME, organism-based, Canis lupus familiaris; conditions: in vivo
in vitro [31] = conditions: human, Caco-2
Description: Efflux ratio of apparent permeability across basolateral to apical membrane over apical to basolateral membrane in human Caco-2 cells

- logD (physchem): 0.14
- bioavailability [1]: 54.6%
- IC50 (Cytochrome P450 3A4): > 30 µM
- concentration at 24 h (in vivo [2]): 1140 ng/g
- hepatocyte CLint at 2 h, 1 µM (in vitro [3]): < 0.96 µL/min/1e6 cells
- AUC [4]: 44400 ng·h/mL
- hepatocyte CLint at 2 h, 1 µM (in vitro [5]): < 0.96 µL/min/1e6 cells
- Drug metabolism [6]: Metabolite_Notdetected
- IC50 (Cytochrome P450 2D6): > 10 µM
- AUCt [7]: 5440 ng·h/mL
- Tmax [8]: 0.75 h
- Drug metabolism [9]: Metabolite_Notdetected
- MRT last at 24 h [10]: 6.09 h
- IC50 (Ketohexokinase): 0.0572 µM
- hepatocyte CLint at 2 h, 1 µM (in vitro [11]): < 0.96 µL/min/1e6 cells
- AUC [12]: 34100 ng·h/mL
- IC50 (Cytochrome P450 2C9 [13]): > 10 µM
- concentration at 24 h (in vivo [14]): 620 ng/g
- AUC [15]: 5580 ng·h/mL
- remaining at 4 h, 10 µM [16]: 97.8%
- Drug metabolism [17]: Metabolite_Notdetected
- IC50 (Cytochrome P450 2C9 [18]): > 30 µM
- MRT last at 24 h [19]: 4.61 h
- microsomal CLint at 2 h, 1 µM (in vitro [20]): < 6.4 µL/min/mg
- Kp at 24 h (in vivo [21]): 9.9
- activity at 30 µM (PXR): 0.96%
- microsomal CLint at 2 h, 1 µM (in vitro [22]): < 6.4 µL/min/mg
- IC50 at 2 h (in vitro [23]): > 150 µM
- AUC [24]: 76200 ng·h/mL
- hepatocyte CLint at 2 h, 1 µM (in vitro [25]): < 0.96 µL/min/1e6 cells
- half-life [26]: 7.16 h
- microsomal CLint at 2 h, 1 µM (in vitro [27]): 10.2 µL/min/mg
- IC50 at 48 h (in vitro [28]): > 150 µM
- clearance [29]: 2.52 mL/min/kg
- clearance [30]: 3.06 mL/min/kg
- efflux ratio (in vitro [31]): 7.45
SMILES: C[C@H]1CCN1c1nc(N2CC[C@H](CCC(=O)O)C2)c2c(n1)C(F)(F)CC2
